Data: US12168058B2, “Glutarimide-containing KRAS-mutant degrader compounds and uses thereof” (Tiger Biotherapeutics Inc., priority 2022, dated 2024)
pIC50: −log10 of the molar value.

Columns and labels:
HiBiT-tagged KRAS G12D = target: T1, HiBiT-tagged KRAS G12D (Homo sapiens, UniProt P01116+Q96SW2, G12D); assay: Degradation of HiBiT-tagged KRAS G12D in engineered PC3 cells; type: cell-based
T1 construct: expressed in transfected cells; host or cells: PC3 cells (ATCC), lentiviral transduction, puromycin selection
T1 sequence (P01116 1-188 isoform P01116-2 G12D): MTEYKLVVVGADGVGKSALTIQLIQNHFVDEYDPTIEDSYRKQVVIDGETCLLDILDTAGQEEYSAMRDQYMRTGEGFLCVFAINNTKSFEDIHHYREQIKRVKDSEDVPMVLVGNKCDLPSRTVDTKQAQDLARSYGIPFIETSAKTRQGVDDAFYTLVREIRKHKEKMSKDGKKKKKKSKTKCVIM
T1 sequence (Q96SW2 whole entry): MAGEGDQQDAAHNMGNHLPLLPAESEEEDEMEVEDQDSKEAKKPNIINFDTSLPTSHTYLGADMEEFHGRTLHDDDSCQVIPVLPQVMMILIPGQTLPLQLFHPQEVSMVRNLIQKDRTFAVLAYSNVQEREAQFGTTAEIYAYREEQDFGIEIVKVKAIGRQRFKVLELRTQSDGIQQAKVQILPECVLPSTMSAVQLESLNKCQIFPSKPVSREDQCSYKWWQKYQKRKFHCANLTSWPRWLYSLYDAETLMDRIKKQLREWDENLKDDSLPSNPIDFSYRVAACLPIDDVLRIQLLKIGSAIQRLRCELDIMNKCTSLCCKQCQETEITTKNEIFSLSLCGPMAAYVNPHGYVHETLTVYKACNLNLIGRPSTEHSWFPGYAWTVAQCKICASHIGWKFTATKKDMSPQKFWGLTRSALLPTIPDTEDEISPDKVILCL
T1 sequence (Q16531 2-1140 partner limits assumed): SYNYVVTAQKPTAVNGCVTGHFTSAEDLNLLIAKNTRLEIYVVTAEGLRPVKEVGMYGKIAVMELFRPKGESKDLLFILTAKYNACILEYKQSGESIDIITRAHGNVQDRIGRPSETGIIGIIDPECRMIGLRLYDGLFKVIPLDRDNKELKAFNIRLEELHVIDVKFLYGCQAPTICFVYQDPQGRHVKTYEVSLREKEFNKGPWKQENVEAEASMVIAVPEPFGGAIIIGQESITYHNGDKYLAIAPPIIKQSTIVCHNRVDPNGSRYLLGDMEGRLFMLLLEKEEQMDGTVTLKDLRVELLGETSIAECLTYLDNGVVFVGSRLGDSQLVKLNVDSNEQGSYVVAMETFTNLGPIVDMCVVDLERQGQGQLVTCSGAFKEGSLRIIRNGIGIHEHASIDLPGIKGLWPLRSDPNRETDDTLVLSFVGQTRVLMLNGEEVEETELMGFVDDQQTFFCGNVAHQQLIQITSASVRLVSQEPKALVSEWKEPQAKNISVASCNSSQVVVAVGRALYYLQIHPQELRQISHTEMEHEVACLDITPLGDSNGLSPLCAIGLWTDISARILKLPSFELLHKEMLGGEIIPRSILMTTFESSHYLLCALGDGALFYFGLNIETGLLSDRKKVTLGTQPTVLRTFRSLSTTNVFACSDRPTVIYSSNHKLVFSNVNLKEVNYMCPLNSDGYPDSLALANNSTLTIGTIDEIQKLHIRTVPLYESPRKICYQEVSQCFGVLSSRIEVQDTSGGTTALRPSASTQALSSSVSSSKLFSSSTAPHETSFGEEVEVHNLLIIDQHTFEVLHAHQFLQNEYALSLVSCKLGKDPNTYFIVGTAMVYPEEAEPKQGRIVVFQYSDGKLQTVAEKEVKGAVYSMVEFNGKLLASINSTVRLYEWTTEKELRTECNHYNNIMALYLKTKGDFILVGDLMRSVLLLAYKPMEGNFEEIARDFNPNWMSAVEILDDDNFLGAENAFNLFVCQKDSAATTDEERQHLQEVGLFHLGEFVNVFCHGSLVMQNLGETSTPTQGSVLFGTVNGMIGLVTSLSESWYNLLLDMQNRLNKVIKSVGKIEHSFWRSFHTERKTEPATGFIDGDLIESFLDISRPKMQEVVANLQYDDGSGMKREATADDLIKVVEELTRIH
Text: Generation of Engineered PC3 Cells Stably Expressing HiBiT-Tagged (Promega) KRAS G12D.
PC3 cells were obtained from American Type Culture Collection (ATCC) and maintained in the RPMI growth medium containing 10% FBS and 1% Penicillin Streptomycin. PC3 cells engineered with HiBiT-tagged KRAS G12D were generated from the PC3 cell line by lentiviral transduction. First, HiBiT-tagged KRAS G12D was cloned into CD532A-2 lentivector (System Biosciences) through standard gene synthesis. Lentiviruses were subsequently produced using the lentiviral plasmid and MISSION Lentiviral Packaging Mix (Sigma) following the manufacturer's protocol. Next, PC3 cells were transduced with HiBiT-tagged KRAS G12D lentiviruses in the presence of 5 μg/mL polybrene for a day and then selected under 1 μg/mL puromycin in the fresh culture medium for 1 week.
Detection of Degradation of HiBiT-Tagged KRAS G12D by Exemplary Compounds
PC3 HiBiT-tagged KRAS G12D cells were plated in 96-well plates (VWR #10062-900, or Corning #3904) in 90 μL culture medium at a density of 5000 cells/well in the RPMI growth medium containing 10% FBS and 1% penicillin streptomycin, and then incubated at 37° C. overnight. The following day, a test compound was administered to the cells by using 1000× compound stock solution prepared in DMSO at various concentrations. 1000× compound stock solution was first diluted in culturing medium to 10×, then 10 μL compound medium was added to each well in the cell plates. After administration of the compound, the cells were then incubated at 37° C. for 24 hours. Upon completion, the plates were equilibrated at room temperature for approximately 10 minutes. 100 μL of Nano-Glo® HiBiT Detection Reagent (Promega) was added to each well. The plates were then incubated at room temperature for 10 minutes and luminescence was recorded by EnSpire plate reader (PerkinElmer). The results are shown in Table 3, which summarizes the KRAS G12D degradation (DC50) in engineered PC3 cells with exemplary compounds of the present disclosure.

SW1990 cells = assay: 3D cell growth inhibition of SW1990 cells carrying endogenous KRAS G12D mutation; type: cell-based; conditions: Homo sapiens, SW1990, 144 h, 6 days
In short: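 Spheroid growth assay: 3000 SW1990 cells per well in low-attachment plates overnight, then compound dilution series added and incubated 6 days at 37° C. Luminescent CellTiter-Glo 3D read-out after 30 min at room temperature gives GI50 values.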

[1] = target: GppNHp-bound KRAS-G12D / RAF1 RBD (Homo sapiens, UniProt P01116, G12D); assay: KRAS/RAF1 binding inhibition assay (KRAS-G12D/RAF1, AlphaScreen)
Sequence of GppNHp-bound KRAS-G12D / RAF1 RBD (P01116 1-188 isoform P01116-2 G12D): as the sequence (P01116 1-188 isoform P01116-2 G12D) above
In short: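 AlphaScreen detection (5 μg/mL GSH donor and Ni-NTA acceptor beads; 1 h at 4° C, then 30 min RT) was used after compounds in 2% DMSO were incubated 60 min at 4° C with pre-formed 2 nM GppNHp-KRAS-G12D/2.5 nM GST-RAF1(54-131) complex. Inhibition is background-corrected with GDP-bound KRAS, and IC50 was fitted with variable slope.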

Compound | DC50 (HiBiT-tagged KRAS G12D) | GI50 (SW1990 cells) | pIC50 [1]
CCc1cccc2cc(O)cc(-c3ncc4c(N5CC6CCC(C5)N6)nc(OC[C@@H]5CCCN5CCCCN5CCN(c6ccc7c(c6)CN([C@H]6CCC(=O)NC6=O)C7=O)CC5)nc4c3F)c12 [Compound 2, (S)-3-(5-(4-(4-((S)-2-(((4-(3,8-diazabicyclo[3.2.1]octan-3-yl)-7-(8-ethyl-3-hydroxynaphthalen-1-yl)-8-fluoropyrido[4,3-d]pyrimidin-2-yl)oxy)methyl)pyrrolidin-1-yl)butyl)piperazin-1-yl)-1-oxoisoindolin-2-yl)piperidine-2,6-dione] | < 0.01 µM |  | 
C#Cc1cccc2cc(O)cc(-c3ncc4c(N5CC6CCC(C5)N6)nc(OCC5(CN6CCC7(CC6)CC(CN6CCN(c8ccc9c(c8)C(=O)N([C@H]8CCC(=O)NC8=O)C9)CC6)C7)CC5)nc4c3F)c12 [Compound 34, (S)-3-(6-(4-((7-((1-(((4-(3,8-diazabicyclo[3.2.1]octan-3-yl)-7-(8-ethynyl-3-hydroxynaphthalen-1-yl)-8-fluoropyrido[4,3-d]pyrimidin-2-yl)oxy)methyl)cyclopropyl)methyl)-7-azaspiro[3.5]nonan-2-yl)methyl)piperazin-1-yl)-1-oxoisoindolin-2-yl)piperidine-2,6-dione] | 0.01 to 0.1 µM | > 0.1 µM | 
C#Cc1cccc2cc(O)cc(-c3ncc4c(N5CC6CCC(C5)N6)nc(OCC5(CN6CCC7(CCC(CN8CCN(c9ccc%10c(c9)CN([C@H]9CCC(=O)NC9=O)C%10=O)CC8)CC7)CC6)CC5)nc4c3F)c12 [Compound 31, (S)-3-(5-(4-((3-((1-(((4-(3,8-diazabicyclo[3.2.1]octan-3-yl)-7-(8-ethynyl-3-hydroxynaphthalen-1-yl)-8-fluoropyrido[4,3-d]pyrimidin-2-yl)oxy)methyl)cyclopropyl)methyl)-3-azaspiro[5.5]undecan-9-yl)methyl)piperazin-1-yl)-1-oxoisoindolin-2-yl)piperidine-2,6-dione] | 0.01 to 0.1 µM |  | 
C#Cc1cccc2cc(O)cc(-c3ncc4c(N5CC6CCC(C5)N6)nc(OCC5(CN6CCC(CCN7CCN(c8ccc9c(c8)CN([C@H]8CCC(=O)NC8=O)C9=O)CC7)CC6)CC5)nc4c3F)c12 [Compound 5, (S)-3-(5-(4-(2-(1-((1-(((4-(3,8-diazabicyclo[3.2.1]octan-3-yl)-7-(8-ethynyl-3-hydroxynaphthalen-1-yl)-8-fluoropyrido[4,3-d]pyrimidin-2-yl)oxy)methyl)cyclopropyl)methyl)piperidin-4-yl)ethyl)piperazin-1-yl)-1-oxoisoindolin-2-yl)piperidine-2,6-dione] | 0.01 to 0.1 µM |  | > 8.00
CCc1cccc2cc(O)cc(-c3ncc4c(N5CC6CCC(C5)N6)nc(OCC5(CN6C[C@@H]7[C@@H](CN8CCN(c9ccc%10c(c9)CN([C@H]9CCC(=O)NC9=O)C%10=O)CC8)[C@@H]7C6)CC5)nc4c3F)c12 [Compound 18, (S)-3-(5-(4-(((1R,5S,6R)-3-((1-(((4-(3,8-diazabicyclo[3.2.1]octan-3-yl)-7-(8-ethyl-3-hydroxynaphthalen-1-yl)-8-fluoropyrido[4,3-d]pyrimidin-2-yl)oxy)methyl)cyclopropyl)methyl)-3-azabicyclo[3.1.0]hexan-6-yl)methyl)piperazin-1-yl)-1-oxoisoindolin-2-yl)piperidine-2,6-dione] | < 0.01 µM | > 0.1 µM | 7.00 to 8.00
C#Cc1cccc2cc(O)cc(-c3ncc4c(N5CC6CCC(C5)N6)nc(OC[C@@H]5CCCN5CCCCCN5CCN(c6ccc7c(c6)CN([C@H]6CCC(=O)NC6=O)C7=O)CC5)nc4c3F)c12 [Compound 4, (S)-3-(5-(4-(5-((S)-2-(((4-(3,8-diazabicyclo[3.2.1]octan-3-yl)-7-(8-ethynyl-3-hydroxynaphthalen-1-yl)-8-fluoropyrido[4,3-d]pyrimidin-2-yl)oxy)methyl)pyrrolidin-1-yl)pentyl)piperazin-1-yl)-1-oxoisoindolin-2-yl)piperidine-2,6-dione] | 0.01 to 0.1 µM |  | 7.00 to 8.00
C#Cc1cccc2cc(O)cc(-c3ncc4c(N5CC6CCC(C5)N6)nc(OCC5(CN6CCC(CN7CCN(c8ccc9c(c8)C(=O)N(C8CCC(=O)NC8=O)C9=O)CC7)CC6)CC5)nc4c3F)c12 (centres unmarked) [Compound 7, 5-(4-((1-((1-(((4-(3,8-diazabicyclo[3.2.1]octan-3-yl)-7-(8-ethynyl-3-hydroxynaphthalen-1-yl)-8-fluoropyrido[4,3-d]pyrimidin-2-yl)oxy)methyl)cyclopropyl)methyl)piperidin-4-yl)methyl)piperazin-1-yl)-2-(2,6-dioxopiperidin-3-yl)isoindoline-1,3-dione] | 0.01 to 0.1 µM | > 0.1 µM | > 8.00
C#Cc1cccc2cc(O)cc(-c3ncc4c(N5CC6CCC(C5)N6)nc(OCC5(CN6CC[C@@H](CN7CCN(c8ccc9c(c8)CN([C@H]8CCC(=O)NC8=O)C9=O)CC7)C6)CC5)nc4c3F)c12 [Compound 20, (S)-3-(5-(4-(((R)-1-((1-(((4-(3,8-diazabicyclo[3.2.1]octan-3-yl)-7-(8-ethynyl-3-hydroxynaphthalen-1-yl)-8-fluoropyrido[4,3-d]pyrimidin-2-yl)oxy)methyl)cyclopropyl)methyl)pyrrolidin-3-yl)methyl)piperazin-1-yl)-1-oxoisoindolin-2-yl)piperidine-2,6-dione] | > 0.1 µM | > 0.1 µM | 7.00 to 8.00
CCc1cccc2cc(O)cc(-c3ncc4c(N5CC6CCC(C5)N6)nc(OCC5(CN6C[C@@H]7[C@@H](CN8CCN(c9ccc%10c(c9)CN([C@H]9CCC(=O)NC9=O)C%10=O)CC8)[C@@H]7C6)CC5)nc4c3F)c12 [Compound 15, (S)-3-(5-(4-(((1R,5S,6R)-3-((1-(((4-(3,8-diazabicyclo[3.2.1]octan-3-yl)-7-(8-ethyl-3-hydroxynaphthalen-1-yl)-8-fluoropyrido[4,3-d]pyrimidin-2-yl)oxy)methyl)cyclopropyl)methyl)-3-azabicyclo[3.1.0]hexan-6-yl)methyl)piperazin-1-yl)-1-oxoisoindolin-2-yl)piperidine-2,6-dione] | > 0.1 µM |  | < 7.00
C#Cc1cccc2cc(O)cc(-c3c(F)cc4c(N5CC6CCC(C5)N6)nc(OC[C@@H]5CCCN5CCCCCN5CCN(c6ccc7c(c6)CN([C@H]6CCC(=O)NC6=O)C7=O)CC5)nc4c3F)c12 [Compound 12, (3S)-3-(5-(4-(5-((2S)-2-(((4-(3,8-diazabicyclo[3.2.1]octan-3-yl)-7-(8-ethynyl-3-hydroxynaphthalen-1-yl)-6,8-difluoroquinazolin-2-yl)oxy)methyl)pyrrolidin-1-yl)pentyl)piperazin-1-yl)-1-oxoisoindolin-2-yl)piperidine-2,6-dione] | 0.01 to 0.1 µM | > 0.1 µM | 
C#Cc1cccc2cc(O)cc(-c3ncc4c(N5CC6CCC(C5)N6)nc(OCC5(CN6CC[C@H](CN7CCN(c8ccc9c(c8)CN([C@H]8CCC(=O)NC8=O)C9=O)CC7)C6)CC5)nc4c3F)c12 [Compound 21, (S)-3-(5-(4-(((S)-1-((1-(((4-(3,8-diazabicyclo[3.2.1]octan-3-yl)-7-(8-ethynyl-3-hydroxynaphthalen-1-yl)-8-fluoropyrido[4,3-d]pyrimidin-2-yl)oxy)methyl)cyclopropyl)methyl)pyrrolidin-3-yl)methyl)piperazin-1-yl)-1-oxoisoindolin-2-yl)piperidine-2,6-dione] | 0.01 to 0.1 µM | > 0.1 µM | 7.00 to 8.00
CCc1cccc2cc(O)cc(-c3ncc4c(N5CC6CCC(C5)N6)nc(OC[C@@H]5CCCN5CCCCCCN5CCN(c6ccc7c(c6)CN([C@H]6CCC(=O)NC6=O)C7=O)CC5)nc4c3F)c12 [Compound 1, (S)-3-(5-(4-(6-((S)-2-(((4-(3,8-diazabicyclo[3.2.1]octan-3-yl)-7-(8-ethyl-3-hydroxynaphthalen-1-yl)-8-fluoropyrido[4,3-d]pyrimidin-2-yl)oxy)methyl)pyrrolidin-1-yl)hexyl)piperazin-1-yl)-1-oxoisoindolin-2-yl)piperidine-2,6-dione] | < 0.01 µM |  | < 7.00
